PubChem BioAssay AID2060904 (Molecular Pharmacology Branch, DTP, NCI, 2025)

System: 349418-098-R-PDC complex spheroid viability
Test: Anticancer human tumor 349418-098-R-PDC patient-derived lung adenocarcinoma cell line growth inhibition [RAS]
Conditions: for IC50: curve of first compound; for viability, T/C: stronger effect = lower value
From the text: RAS pathway inhibitors in Combinations in Complex Spheroids
A high-throughput screen of multi-cell type tumor spheroids was designed to identify active combinations of RAS pathway inhibitors and targeted small molecules. Complex spheroids include a stromal component modeled by human endothelial cells (HUVEC) and fibroblasts modeled by human mesenchymal stem cells (MSCs). The concentration ranges selected for each drug and investigational agent were based upon clinically achievable concentrations if the clinical Cmax of the agent was known.
Compounds. The drugs and investigational agents: abemaciclib (NSC768073), cobimetinib (NSC768068), divarasib (GDC6063, NSC841802), docetaxel (NSC628503), GDC-1971 (RLY-1971, NSC841576), gemcitabine (NSC613327), inavolisib (NSC800729), ipatasertib (NSC767898), KB-0742 (NSC834161), MRTX-1133 (NSC836407), osimertinib (NSC779217), RMC-4630 (NSC839698), RMC-6236 (NSC851965), RMC-6291 (NSC852671), Ro-3306 (NSC812927), sapanisertib (NSC764658), SN-38 (NSC673596), staurosporine (NSC755774), SY5609 (NSC837396), and tovorafenib (DAY101, NSC766906), were obtained from the National Cancer Institute (NCI) Developmental Therapeutics Program Chemical Repository. The FDA-approved anticancer drug set is available from the NCI Developmental Therapeutics Program. […] The stock solutions were prepared in dimethyl sulfoxide (DMSO, Sigma-Aldrich, St. Louis, MO, cat. D2650) at 800-fold the tested concentration and stored at -70 degrees C prior to their use. All drugs and investigational agents were tested over a range starting from a high concentration at or near the clinical Cmax and decreasing in half-log increments. If the clinical Cmax for an agent had not been determined, the highest concentration tested was 10 microM.
Cell Culture. All cells were maintained in an incubator at 37 degrees C and 5% CO2 with 95% humidity. The PDC lines were cultured according to standard operating procedures established by the NCI PDMR. All PDCs were thawed and cultured in Matrigel-coated flasks prepared with a working solution of 1X Ham's F-12 nutrient mix, without supplementation (Invitrogen, Waltham, MA, cat. 11765054), 100 U/mL penicillin-streptomycin (Invitrogen, cat. 15140122), and 2.5% Matrigel (Corning Inc., Corning, NY, cat. 354248) for the first three passages. The 362531-283-R-J2-PDC and 782815-120-R-J1-PDC lines were cultured in 6C/Colon 1B media, which includes advanced DMEM/F-12 (Thermo Fisher Scientific, cat. 12634028), 10 mM HEPES (Thermo Fisher Scientific, cat. 15630080), 1X GlutaMAX supplement (Thermo Fisher Scientific, cat. 35050061), 0.1 mg/mL primocin (InvivoGen, San Diego, CA, cat. ant-pm-2), 10% defined fetal bovine serum, heat inactivated (HyClone Laboratories Inc., Logan, UT, cat. SH30070.03HI), 50% L-WRN conditioned media (ATCC, cat. CRL-3276), 1.25 mM N-Acetyl-L-cysteine (Sigma-Aldrich, cat. A9165), 10 mM nicotinamide (Sigma-Aldrich, cat. N0636), 1X B-27 supplement (Thermo Fisher Scientific, cat. 17504044), 1X N-2 supplement (Thermo Fisher Scientific, cat. 17502048), 50 ng/mL human EGF (Thermo Fisher Scientific, cat. PHG0311), and 10 microM Y-27632 dihydrochloride (Tocris Bioscience, cat. 1254). The K12877-001-R-J1-PDC line was cultured in 6I media, which includes all 6C/Colon 1B media plus 10 ng/mL human FGF-10 (PeproTech, cat. 100-26), 1 ng/mL human FGF-2 (PeproTech, cat. 100-18B), 1 µM prostaglandin E2 (Tocris Bioscience, cat. 2296), […] hydrocortisone (Sigma-Aldrich, cat. H4001), and […] bovine insulin (Sigma-Aldrich, cat. I6634). The K86415-001-R-J1-PDC line was cultured in 6D media, which includes all 6C/Colon 1B media components minus the L-WRN conditioned media. The 485176-168-R4-J1-PDC was cultured in PANC media, which includes all 6C/Colon 1B media plus 100 ng/mL human FGF-10 (PeproTech, cat. 100-26), 500 nM SB-431542 (Selleckchem, cat. S1067), and 10 nM gastrin (Tocris Bioscience, cat. 3006). […]
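Note: spheroids exposed to compound for seven days before viability readout.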

For CCc1c2c(nc3ccc(O)cc13)-c1cc3c(c(=O)n1C2)COC(=O)[C@]3(O)CC + CCn1c(-c2cc(N3CCN(C)CC3)cnc2C(C)OC)c2c3cc(ccc31)-c1csc(n1)CC(NC(=O)C1CC1C)C(=O)N1CCCC(N1)C(=O)OCC(C)(C)C2, the IC50 (second compound 0.000949 µM) was 2.48 nM, the IC50 (second compound 0.003 µM) was 2.46 nM and the IC50 (second compound 0.00949 µM) was 3.33 nM. The IC50 (second compound 0.03 µM) was 2.31 nM, the IC50 (second compound 0.0949 µM) was 2.78 nM and the IC50 (second compound 0.3 µM) was 2.42 nM. The viability, T/C (second compound 0.000949 µM, first compound 0.000949 µM) was 88%, the viability, T/C (second compound 0.000949 µM, first compound 0.003 µM) was 42.6% and the viability, T/C (second compound 0.000949 µM, first compound 0.00949 µM) was 12.3%. For the same compound, the viability, T/C (second compound 0.000949 µM, first compound 0.03 µM) was 6.15%, the viability, T/C (second compound 0.000949 µM, first compound 0.0949 µM) was 2.77% and the viability, T/C (second compound 0.000949 µM, first compound 0.3 µM) was 1.87%. It also gave a viability, T/C (second compound 0.003 µM, first compound 0.000949 µM) of 80.7%, a viability, T/C (second compound 0.003 µM, first compound 0.003 µM) of 43.8% and a viability, T/C (second compound 0.003 µM, first compound 0.00949 µM) of 13.4%. The viability, T/C (second compound 0.003 µM, first compound 0.03 µM) was 5.78%, the viability, T/C (second compound 0.003 µM, first compound 0.0949 µM) was 2.15% and the viability, T/C (second compound 0.003 µM, first compound 0.3 µM) was 1.76%. The viability, T/C (second compound 0.00949 µM, first compound 0.000949 µM) was 84.5%, the viability, T/C (second compound 0.00949 µM, first compound 0.003 µM) was 53.7% and the viability, T/C (second compound 0.00949 µM, first compound 0.00949 µM) was 13.5%. The viability, T/C (second compound 0.00949 µM, first compound 0.03 µM) was 6.16%, the viability, T/C (second compound 0.00949 µM, first compound 0.0949 µM) was 3.17% and the viability, T/C (second compound 0.00949 µM, first compound 0.3 µM) was 1.91%. The viability, T/C (second compound 0.03 µM, first compound 0.000949 µM) was 90.9%, the viability, T/C (second compound 0.03 µM, first compound 0.003 µM) was 38% and the viability, T/C (second compound 0.03 µM, first compound 0.00949 µM) was 11.6%. For the same compound, the viability, T/C (second compound 0.03 µM, first compound 0.03 µM) was 5.22%, the viability, T/C (second compound 0.03 µM, first compound 0.0949 µM) was 2.72% and the viability, T/C (second compound 0.03 µM, first compound 0.3 µM) was 2.61%. It also gave a viability, T/C (second compound 0.0949 µM, first compound 0.000949 µM) of 88.9%, a viability, T/C (second compound 0.0949 µM, first compound 0.003 µM) of 47.3% and a viability, T/C (second compound 0.0949 µM, first compound 0.00949 µM) of 17.3%. The viability, T/C (second compound 0.0949 µM, first compound 0.03 µM) was 6.18%, the viability, T/C (second compound 0.0949 µM, first compound 0.0949 µM) was 2.99% and the viability, T/C (second compound 0.0949 µM, first compound 0.3 µM) was 1.97%. It also gave a viability, T/C (second compound 0.3 µM, first compound 0.000949 µM) of 87.1%, a viability, T/C (second compound 0.3 µM, first compound 0.003 µM) of 41% and a viability, T/C (second compound 0.3 µM, first compound 0.00949 µM) of 19.7%. The viability, T/C (second compound 0.3 µM, first compound 0.03 µM) was 7.26%, the viability, T/C (second compound 0.3 µM, first compound 0.0949 µM) was 3.82% and the viability, T/C (second compound 0.3 µM, first compound 0.3 µM) was 1.95%.
